# Entries after “also recorded” stand apart in the source; their conditions may differ.
# Tested on: allergen challenged allergic mice
# Test: Allergic pulmonary inflammation model (ovalbumin/alum sensitized mice, intratracheal ovalbumin challenge, BAL fluid analysis)
# Type: in vivo, Balb/c female mice
# Conditions: for total cellular infiltrate (cells recovered in the bronchoalveolar lavage fluid) / neutrophils and monocytes/macrophages at the site of inflammation (BAL fluid) / number of eosinophils recovered in the BAL fluid / IL-5 levels in the BAL fluid / IL-10 levels in the BAL fluid: ovalbumin/alum sensitized mice; for total cellular infiltrate (cells recovered in the bronchoalveolar lavage fluid): intratracheal ovalbumin challenge, compared to buffer-treated mice; for neutrophils and monocytes/macrophages at the site of inflammation (BAL fluid) / number of eosinophils recovered in the BAL fluid / IL-5 levels in the BAL fluid / IL-10 levels in the BAL fluid: ovalbumin challenge; for IL-5 levels in the BAL fluid / IL-10 levels in the BAL fluid: ELISA
# Text: This model is used below to evaluate the effect of the compounds of the invention and to carry out comparative tests.
# The prevention protocol is designed to determine the ability of treatment to prevent the development of symptoms of allergic pulmonary inflammation in subsequently sensitized mice. The therapeutic protocol is designed to determine the ability of treatment to cure symptoms of allergic pulmonary inflammation in sensitized mice.
# In the prevention protocol Balb/c female mice (7-8 weeks of age, 17-20 g in weight) are treated with saline or buffer—0.001% FFA albumin in saline (as positive control) or lipid fractions of mycobacteria (taken form the sample deposited at the National Collection of Type Cultures under deposit number NCTC 11659). Three weeks after treatment all mice are sensitized intraperitoneally with 10 μg ovalbumin (OVA) and Alum (a 100 μl preparation of Alum supplied by Serva-Alu-Gel-S suspension). Sensitization is repeated after twelve days. On day 19, mice are intratracheally challenged with OVA (0.5 μg in 50 μl saline). Intratracheal antigenic challenge is repeated two days later. Twenty-four or 48 hours after the last challenge, the experiment is terminated.
# In the therapeutic protocol mice are sensitized with OVA and Alum on day 0 and 12. On day 21, mice are treated as appropriate. Mice are resensitized on days 42 and 54. On days 61 and 63, mice are challenged intratracheally with OVA and the experiment terminated 24 or 48 hours later.
# In some experiments, a small number of mice from the positive control group are challenged intratracheally with saline alone to determine the background level of cells infiltrating the lungs of sensitized mice in the absence of an allergic episode (negative control).
# A number of end points are routinely assessed. Mice are bled by cardiac puncture and blood collected for serum analysis. The lungs are lavaged three times with 0.3 ml of sterile RPMI containing Penicillin/Streptomycin. The lavage fluid is collected and recovered cells are counted. Fifty or 100 μl of lavage fluid is used for a cytospin, which is stained (Wright-Giemsa stain), fixed in methanol and used for the morphological identification of specific cell populations of interest (eosinophils, neutrophils and monocytes/macrophages). The remaining fluid is spun down and the supernatant stored for cytokine measurement by ELISA. Spleens are pooled per treatment groups, a single cell suspension of splenocytes is obtained and placed in culture with OVA for specific antigenic stimulation and with anti-CD3 for polyclonal T cell stimulation. Supernatants are collected and stored for cytokine measurement by ELISA.
Compound,total cellular infiltrate (cells recovered in the bronchoalveolar lavage fluid),neutrophils and monocytes/macrophages at the site of inflammation (BAL fluid),number of eosinophils recovered in the BAL fluid,IL-5 levels in the BAL fluid,IL-10 levels in the BAL fluid,"total cellular infiltrate in the lungs (single dose as low as 1 μg (doses tested 5 μg, 1 μg, 0.1 μg))"
CCCCC/C=C/CCCCCCCCC(=O)O [C16:1 10-11 trans],reduction in the cellular infiltrate,,,,,
CCCCC=CCCCCCCCCCC(=O)OCC(COC(=O)CCCCCCCCCC=CCCCC)OC(=O)CCCCCCCCCC=CCCCC (stereo not drawn) [C16:1 11-12],failed to reduce,,,,,
"CCCCC/C=C\CCCCCCCCC(=O)O [SRP312f, hexadecenoic acid (10Z)]",,did not result in neutrophilia or in an increase of monocytes or macrophages,significant reduction,reduced,increased,
"CCCCC/C=C\CCCCCCCCC(=O)OCC(COC(=O)CCCCCCCC/C=C\CCCCC)OC(=O)CCCCCCCC/C=C\CCCCC [SRP312t, tri-ester of 1,2,3-propanetriol and hexadecenoic acid (10Z)]",reduced the total cellular infiltrate; also recorded: greater reduction,did not result in neutrophilia or in an increase of monocytes or macrophages,significant reduction,reduced,increased,significantly reduce

# Source: patent US7569213B2, “Immunotherapeutic agent” (Stanford Rook Limited, priority 2004, dated 2009)
